Marks after values point to notes of the source that are not given here.
What was measured:
Plasmopara viticola = assay: Test D: grape downy mildew, spray after inoculation of grape seedlings; type: in vivo
Source text: Upon removal, disease ratings were made. […] A dash (-) indicates no test results.

Phytophthora infestans = assay: whole plant or invertebrate; type: in vivo
Septoria tritici = assay: Test J: wheat leaf blotch, preventive spray on wheat seedlings; type: in vivo; conditions: 40 ppm (*)
Source text: A dash (-) indicates no test results.

fusarium graminearium = assay: Test I: wheat head scab, preventive spray on wheat seedlings
Experimental: (the causal agent of wheat head scab) and incubated in a saturated atmosphere at 20° C. for 72 h, and then moved to a growth chamber at 22° C. for 5 days, after which disease ratings were made.

[1] = tested on: Puccinia recondita f. sp. tritici; assay: Test K: wheat leaf rust, preventive spray on wheat seedlings; conditions: 40 ppm (*)
Botrytis cinerea = assay: Test E: tomato botrytis, preventive spray on tomato seedlings; conditions: 40 ppm (*)
Septoria nodorum = assay: Test H: wheat glum blotch, preventive spray on wheat seedlings; conditions: 40 ppm (*)
Experimental: (the causal agent of wheat glum blotch) and incubated in a saturated atmosphere at 20° C. for 48 h, and then moved to a growth chamber at 22° C. for 5 days, after which disease ratings were made.

[2] = tested on: Erysiphe graminis f. sp. tritici; assay: Test L: wheat powdery mildew, preventive spray on wheat seedlings; conditions: 40 ppm (*)
Pythium aphanidermatum = assay: Test A: bluegrass pythium blight, preventive spray on bluegrass seedlings
Rhizoctonia oryzae = assay: Test G: turf brown patch, preventive spray on creeping bent grass seedlings; conditions: 40 ppm (*)
Experimental: (the causal agent of turf brown patch) and incubated in a saturated atmosphere at 27° C. for 24 h, and then moved to a growth chamber at 27° C. for 5 days, after which disease ratings were made.

[3] = tested on: Colletotrichum orbiculare; assay: Test B: cucumber Colletotrichum anthracnose, preventive spray on cucumber seedlings

| Compound | Test D disease control rating (Plasmopara viticola; 200 ppm) | Test F disease control rating (Phytophthora infestans; 200 ppm) | Test J disease control rating (Septoria tritici) | Test I disease control rating (fusarium graminearium; 200 ppm) | Test K disease control rating [1] | Test E disease control rating (Botrytis cinerea) | Test H disease control rating (Septoria nodorum) | Test L disease control rating [2] | Test A disease control rating (Pythium aphanidermatum; 200 ppm) | Test G disease control rating (Rhizoctonia oryzae) | Test B disease control rating ([3]; 40 ppm (*)) | Test D disease control rating (Plasmopara viticola; 40 ppm (*)) | Test F disease control rating (Phytophthora infestans; 40 ppm (*)) | Test I disease control rating (fusarium graminearium; 40 ppm (*)) | Test A disease control rating (Pythium aphanidermatum; 40 ppm (*)) | Test B disease control rating ([3]; 200 ppm) |
| --- | --- | --- | --- | --- | --- | --- | --- | --- | --- | --- | --- | --- | --- | --- | --- | --- |
| CC(C)Cn1c(-c2ccsc2)c(Cl)nc(-n2cncn2)c1=O [compound 159] | 0% | 47% | 69* % | 0% | 0* % | 0* % | 0* % | 0* % | 0% | 0* % | 0* % |  |  |  |  |  |
| N#Cc1nc(Cl)c(-c2c(F)cccc2F)n(-c2ccccc2)c1=O [compound 163] |  |  | 3* % |  | 0* % | 0* % | 0* % | 0* % |  | 0* % | 0* % | 0* % | 0* % | 0* % | 0* % |  |
| CCC(C)Cn1c(-c2ccc(F)cc2Cl)c(Cl)nc(-n2cncn2)c1=O (stereo not shown) [compound 165] |  |  | 100* % |  | 100* % | 100* % | 100* % | 100* % |  | 16* % | 52* % | 31* % | 0* % | 0* % | 0* % |  |
| CCC(C)Cn1c(-c2ccc(F)cc2Cl)c(Cl)nc(-n2cc(Cl)cn2)c1=O (stereo not shown) [compound 166] |  |  | 100* % |  | 86* % | 100* % | 0* % | 0* % |  | 26* % | 17* % | 0* % | 0* % | 0* % | 0* % |  |
| CCC(C)Cn1c(-c2ccc(F)cc2Cl)c(Cl)nc(-n2ccc(C(F)(F)F)n2)c1=O (stereo not shown) [compound 167] |  |  | 93* % |  | 80* % | 0* % | 0* % | 0* % |  | 0* % | 0* % | 0* % | 0* % | 0* % | 0* % |  |
| CCC(C)Cn1c(-c2ccc(F)cc2Cl)c(Cl)nc(-n2nc(C)cc2C)c1=O (stereo not shown) [compound 168] |  |  | 36* % |  | 0* % | 0* % | 0* % | 0* % |  | 0* % | 0* % | 0* % | 0* % | 0* % | 0* % |  |
| CCC(C)Cn1c(-c2ccc(F)cc2Cl)c(Cl)nc(-n2cc(C)cn2)c1=O (stereo not shown) [compound 169] |  |  | 100* % |  | 92* % | 99* % | 97* % | 75* % |  | 0* % | 98* % | 0* % | 0* % | 0* % | 0* % |  |
| CC(C)Cn1c(-c2c(F)c(F)c(F)c(F)c2F)c(Cl)nc(-n2cccn2)c1=O [compound 171] |  |  | 52* % |  | 96* % | 100* % | 82* % | 99* % |  | 95* % |  | 0* % | 0* % | 0* % | 0* % | 0% |
| CC(C)Cn1c(-c2c(F)cccc2F)c(Cl)nc(-c2cccnc2)c1=O [compound 178] |  |  | 5* % |  | 0* % | 0* % | 0* % | 0* % |  | 0* % | 0* % | 0* % | 0* % | 0* % | 0* % |  |
| CCCC(C)n1c(-c2c(F)cccc2F)c(Cl)nc(-n2cccn2)c1=O (stereo not shown) [compound 180] |  |  | 98* % |  | 100* % | 99* % | 99* % | 95* % |  | 94* % | 66* % | 0* % | 0* % | 0* % | 0* % |  |
| CCC(CC)n1c(-c2c(F)cccc2F)c(Cl)nc(-n2cccn2)c1=O [compound 181] |  |  | 100* % |  | 100* % | 99* % | 99* % | 98* % |  | 100* % | 51* % | 0* % | 0* % | 0* % | 0* % |  |
| CCC(CC)Cn1c(-c2c(F)cccc2F)c(Cl)nc(-n2cccn2)c1=O [compound 183] |  |  | 100* % |  | 99* % | 100* % | 89* % | 92* % |  | 81* % | 0* % | 0* % | 0* % | 0* % | 0* % |  |
| CCn1c(-c2c(F)cccc2F)c(Cl)nc(-n2cccn2)c1=O [compound 184] |  |  | 96* % |  | 98* % | 100* % | 100* % | 98* % |  | 88* % | 0* % | 67* % | 0* % | 0* % | 0* % |  |
| C#CCn1c(-c2c(F)cccc2F)c(Cl)nc(-n2cccn2)c1=O [compound 186] |  |  | 92* % |  | 100* % | 99* % | 100* % | 90* % |  | 67* % | 16* % | 0* % | 0* % | 0* % | 0* % |  |
| O=c1c(-n2cccn2)nc(Cl)c(-c2c(F)cccc2F)n1Cc1ccco1 [compound 187] |  |  | 77* % |  | 91* % | 96* % | 0* % | 0* % |  | 0* % | 0* % | 0* % | 0* % | 0* % | 0* % |  |
| O=c1c(-n2cncn2)nc(Cl)c(-c2c(F)cccc2F)n1Cc1ccco1 [compound 188] |  |  | 23* % |  | 0* % | 56* % | 0* % | 0* % |  | 0* % | 0* % | 0* % | 0* % | 0* % | 0* % |  |
| N#Cc1nc(Cl)c(-c2c(F)cccc2F)n(Cc2ccco2)c1=O [compound 189] |  |  | 15* % |  | 0* % | 0* % | 0* % | 0* % |  | 0* % | 0* % | 0* % | 0* % | 0* % | 0* % |  |

Source: patent US20080194585A1, “Fungicidal Pyrazine Derivatives” (priority 2005, published 2008)
